PubChem BioAssay (NCI)
“And” between values parts separate entries of the source, which are not always exact repeats. Equal entries are not always repeated.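 Growth conditions: 96-well plates. Treatment: test compound, 48 hours, 5 concentrations. Analysis: linear interpolation between bracketing concentrations; unreached endpoints set to highest concentration. GI50: concentration for 50% inhibition of growth. TGI: concentration producing complete growth inhibition.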 Where a SMILES comes first, the peptide text is derived from it. [ ]: non-standard residue; d: D form. The star is where a group is joined. ξ: configuration not given here. dIva = CC[C@@](C)(N)C(=O)O; Aib = CC(C)(N)C(=O)O; ξP = O=C(O)C1CCCN1; βAla = NCCC(=O)O; X5 = OCN*

Tests used:
Test in all cases: NCI tumour cell line growth inhibition, 48 h
SK-MEL-28 melanoma = test system: SK-MEL-28 melanoma
SN12C renal = test system: SN12C renal
OVCAR-3 ovarian = test system: OVCAR-3 ovarian
LOX IMVI melanoma = test system: LOX IMVI melanoma
SK-OV-3 ovarian = test system: SK-OV-3 ovarian
U251 CNS = test system: U251 CNS
ACHN renal = test system: ACHN renal
SF-268 CNS = test system: SF-268 CNS
SK-MEL-5 melanoma = test system: SK-MEL-5 melanoma
TK-10 renal = test system: TK-10 renal
NCI-H226 lung = test system: NCI-H226 lung
HCT-116 colon = test system: HCT-116 colon
UACC-257 melanoma = test system: UACC-257 melanoma
MDA-MB-435 = test system: MDA-MB-435
SNB-19 CNS = test system: SNB-19 CNS
OVCAR-5 ovarian = test system: OVCAR-5 ovarian
A549 NSCLC = test system: A549 NSCLC
BT-549 breast = test system: BT-549 breast
HS 578T breast = test system: HS 578T breast
NCI-H522 lung = test system: NCI-H522 lung
SF-539 CNS = test system: SF-539 CNS
HL-60(TB) leukemia = test system: HL-60(TB) leukemia
IGROV1 ovarian = test system: IGROV1 ovarian
OVCAR-4 ovarian = test system: OVCAR-4 ovarian
MOLT-4 leukemia = test system: MOLT-4 leukemia
HCT-15 colon = test system: HCT-15 colon
CAKI-1 renal = test system: CAKI-1 renal
SW-620 colon = test system: SW-620 colon
HOP-62 NSCLC = test system: HOP-62 NSCLC
NCI-H460 lung = test system: NCI-H460 lung
EKVX NSCLC = test system: EKVX NSCLC
786-0 renal = test system: 786-0 renal
T-47D breast = test system: T-47D breast
MALME-3M melanoma = test system: MALME-3M melanoma
K-562 leukemia = test system: K-562 leukemia
SF-295 CNS = test system: SF-295 CNS
DU-145 prostate = test system: DU-145 prostate
CCRF-CEM leukemia = test system: CCRF-CEM leukemia
PC-3 prostate = test system: PC-3 prostate
KM12 colon = test system: KM12 colon
RPMI-8226 leukemia = test system: RPMI-8226 leukemia
OVCAR-8 ovarian = test system: OVCAR-8 ovarian
UACC-62 melanoma = test system: UACC-62 melanoma
COLO 205 colon = test system: COLO 205 colon
SR leukemia = test system: SR leukemia
M14 melanoma = test system: M14 melanoma
HCC-2998 colon = test system: HCC-2998 colon
MDA-MB-468 breast = test system: MDA-MB-468 breast
A498 renal = test system: A498 renal
RXF 393 renal = test system: RXF 393 renal
MCF7 breast = test system: MCF7 breast
NCI/ADR-RES ovarian = test system: NCI/ADR-RES ovarian
HT29 colon = test system: HT29 colon
HOP-92 NSCLC = test system: HOP-92 NSCLC
NCI-H23 lung = test system: NCI-H23 lung

O=C(Nc1nc2ccc([N+](=O)[O-])cc2s1)Nc1ccccc1F
GI50 (SK-MEL-28 melanoma): 5.79 µM
TGI (SK-MEL-28 melanoma): 83.8 µM
GI50 (SN12C renal): 4.65 µM
TGI (SN12C renal): 62.3 µM
GI50 (OVCAR-3 ovarian): 3.99 µM
TGI (OVCAR-3 ovarian): 46.6 µM
GI50 (LOX IMVI melanoma): 10.7 µM
TGI (LOX IMVI melanoma): 58.8 µM
GI50 (SK-OV-3 ovarian): 5.9 µM
TGI (SK-OV-3 ovarian): 46.1 µM
GI50 (U251 CNS): 7.41 µM
TGI (U251 CNS): 35.7 µM
GI50 (ACHN renal): 8.13 µM
TGI (ACHN renal): 95.7 µM
GI50 (SF-268 CNS): 8.41 µM
TGI (SF-268 CNS): > 100 µM
GI50 (SK-MEL-5 melanoma): 2.64 µM
TGI (SK-MEL-5 melanoma): 7.35 µM
GI50 (TK-10 renal): 8.78 µM
TGI (TK-10 renal): 83 µM
GI50 (NCI-H226 lung): 13.4 µM
TGI (NCI-H226 lung): > 100 µM
GI50 (HCT-116 colon): 9.97 µM
TGI (HCT-116 colon): 39.8 µM
GI50 (UACC-257 melanoma): 6.08 µM
TGI (UACC-257 melanoma): 36.9 µM
GI50 (MDA-MB-435): 5.46 µM
TGI (MDA-MB-435): > 100 µM
GI50 (SNB-19 CNS): 6.35 µM
TGI (SNB-19 CNS): > 100 µM
GI50 (OVCAR-5 ovarian): 22 µM
TGI (OVCAR-5 ovarian): 80.8 µM
GI50 (A549 NSCLC): 7.4 µM
TGI (A549 NSCLC): 28.5 µM
GI50 (BT-549 breast): 11.9 µM
TGI (BT-549 breast): 46.5 µM
GI50 (HS 578T breast): 5.89 µM
TGI (HS 578T breast): 59 µM
GI50 (NCI-H522 lung): 3.49 µM
TGI (NCI-H522 lung): 22.6 µM
GI50 (SF-539 CNS): 8.33 µM
TGI (SF-539 CNS): 26.9 µM
GI50 (HL-60(TB) leukemia): 4.31 µM
TGI (HL-60(TB) leukemia): 22 µM
GI50 (IGROV1 ovarian): 4.57 µM
TGI (IGROV1 ovarian): > 100 µM
GI50 (OVCAR-4 ovarian): 5.21 µM
TGI (OVCAR-4 ovarian): > 100 µM
GI50 (MOLT-4 leukemia): 3.77 µM
TGI (MOLT-4 leukemia): 15.5 µM
GI50 (HCT-15 colon): 4.93 µM
TGI (HCT-15 colon): 33.9 µM
GI50 (CAKI-1 renal): 5.32 µM
TGI (CAKI-1 renal): 73.2 µM
GI50 (SW-620 colon): 12.2 µM
TGI (SW-620 colon): > 100 µM
GI50 (HOP-62 NSCLC): 17.2 µM
TGI (HOP-62 NSCLC): 56.3 µM
GI50 (NCI-H460 lung): 4.66 µM
TGI (NCI-H460 lung): 26.5 µM
GI50 (EKVX NSCLC): 4.37 µM
TGI (EKVX NSCLC): 55.5 µM
GI50 (786-0 renal): 17.7 µM
TGI (786-0 renal): > 100 µM
GI50 (T-47D breast): 3.06 µM
TGI (T-47D breast): 22.7 µM
GI50 (MALME-3M melanoma): 4.17 µM
TGI (MALME-3M melanoma): 30.9 µM
GI50 (K-562 leukemia): 4.99 µM
TGI (K-562 leukemia): 25 µM
GI50 (SF-295 CNS): 11.4 µM
TGI (SF-295 CNS): 32.1 µM
GI50 (DU-145 prostate): 7.11 µM
TGI (DU-145 prostate): > 100 µM
GI50 (CCRF-CEM leukemia): 5.42 µM
TGI (CCRF-CEM leukemia): 47.9 µM
GI50 (PC-3 prostate): 6.83 µM
TGI (PC-3 prostate): 51 µM
GI50 (KM12 colon): 5.33 µM
TGI (KM12 colon): 52.8 µM
GI50 (RPMI-8226 leukemia): 3.45 µM
TGI (RPMI-8226 leukemia): 16.5 µM
GI50 (OVCAR-8 ovarian): 15.8 µM
TGI (OVCAR-8 ovarian): 50.4 µM
GI50 (UACC-62 melanoma): 3.77 µM
TGI (UACC-62 melanoma): > 100 µM
GI50 (COLO 205 colon): 15.1 µM
TGI (COLO 205 colon): 30.4 µM
GI50 (SR leukemia): 3.31 µM
TGI (SR leukemia): 17.4 µM
GI50 (M14 melanoma): 19.1 µM
TGI (M14 melanoma): > 100 µM
GI50 (HCC-2998 colon): 7.58 µM
TGI (HCC-2998 colon): 34.1 µM
GI50 (MDA-MB-468 breast): 3.2 µM
TGI (MDA-MB-468 breast): 19.2 µM
GI50 (A498 renal): 4.88 µM
TGI (A498 renal): 36.7 µM
GI50 (RXF 393 renal): 13.3 µM
TGI (RXF 393 renal): 47.3 µM
GI50 (MCF7 breast): 5.68 µM
TGI (MCF7 breast): 35.3 µM
GI50 (NCI/ADR-RES ovarian): 7.98 µM
TGI (NCI/ADR-RES ovarian): 32.4 µM
GI50 (HT29 colon): 23.6 µM
TGI (HT29 colon): > 100 µM
GI50 (HOP-92 NSCLC): 2.83 µM
TGI (HOP-92 NSCLC): 8.28 µM
GI50 (NCI-H23 lung): 3.6 µM
TGI (NCI-H23 lung): 21.6 µM

CCCCCCCCCCCCCCCC(N)c1ccccc1 (configuration not stated)
GI50 (MDA-MB-468 breast): 1.58 µM
TGI (MDA-MB-468 breast): 3.14 µM

CN1CCN(Cc2ccc(NC(=O)c3cncc(C#Cc4ncc5ccccn45)c3)cc2C(F)(F)F)CC1
GI50 (MDA-MB-468 breast): 2.78 µM
TGI (MDA-MB-468 breast): 7.9 µM

NC(N)=NC(N)=NCc1ccco1
GI50 (MDA-MB-468 breast): 158 µM and 36.8 µM
TGI (MDA-MB-468 breast): 500 µM

CC(=O)Nc1nc(C)c(-c2cc3c(c(S(C)(=O)=O)c2)C(=O)N([C@@H](C)C2CC2)C3)s1
GI50 (MDA-MB-468 breast): 31.6 µM
TGI (MDA-MB-468 breast): > 100 µM

C=CC(=O)Nc1cccc(Nc2nc(Nc3ccc(N4CCN(C(C)=O)CC4)cc3OC)ncc2C(F)(F)F)c1
GI50 (MDA-MB-468 breast): 0.288 µM and 0.266 µM
TGI (MDA-MB-468 breast): 1.98 µM and 1.62 µM

CC[C@@](C)(NC(=O)[C@H](C)NC(=O)CCNC(=O)C(C)(C)NC(=O)[C@H](C)NC(=O)[C@@H]1CCCN1C(=O)[C@@](C)(CC)NC(=O)[C@H](Cc1ccccc1)NC(=O)C1CCCN1C(=O)C(C)(C)NC(=O)C1CCCN1C(=O)C(C)(C)NC(C)=O)C(=O)NCCC(=O)N[C@@H](CC(C)C)C(=O)NC(C)(C)C(=O)NCCC(=O)N[C@@H](CC(C)C)C(=O)NC(C)(C)C(=O)NC(C)(C)C(=O)N[C@@H](CC(C)C)C(=O)NCCC(=O)NCO (some centres not stated) (Ac-[Aib][ξP][Aib][ξP]F[dIva]PA[Aib][βAla]A[dIva][βAla]L[Aib][βAla]L[Aib][Aib]L[βAla]-X5)
GI50 (MDA-MB-468 breast): 0.0528 µM
TGI (MDA-MB-468 breast): 0.163 µM
